Source: patent US20260001875A1, “AMINOPYRIMIDINYL DERIVATIVES FOR THE TREATMENT OF PARKINSON'S DISEASE” (UNIVERSITY OF DUNDEE, priority 2022, published 2026)
Entries after “also recorded” stand apart in the source; their conditions may differ.

Tests used:
LRRK2 pSer935 = assay: LRRK2 Ser935 dephosphorylation in PBMC; assay type: cell-based, human; conditions: time course at 300 nM
Experimental: PBMC cells were separated from human blood following existing protocol (dx.doi.org/10.17504/protocols.io.bnhxmb7n) and pelleted by centrifugation at 1000 g for 2 min. The supernatant was discarded and the PBMC pellet was resuspended in PBS containing 2% FBS for washing. The suspension was centrifuged at 1000 g for 2 min again and the PBMC pellet was resuspended in RPMI-1640 (Gibco) media supplemented with 10% FBS. The cells were then seeded into 6-well plates and treated with testing compounds at indicated concentrations and time period. After treatment, the cells were collected into 2-ml Eppendorf tube and centrifuged at 500 g for 2 min to pellet the cells, the supernatant was discarded, and the pellet was resuspended in 1 ml PBS and centrifuged at 500 g for 2 min again. […] The supernatants were collected for analysis by quantitative immunoblotting. […] Protein concentrations of cell lysates were determined using Pierce™ BCA Protein Assay Kit (ThermoFisher).
Cell lysates containing a quarter of a volume of 4× NuPAGE LDS sample buffer (NP0007) supplemented with 5% β-mercaptoethanol, were heated at 95° C. for 5 minutes. […] Thereafter, the membranes were washed with TBS-T three times with a 15-minute incubation for each wash, and protein bands were acquired via near-infrared fluorescent detection using the Odyssey CLx imaging system and quantified using Image Studio software. […]

[1] = Stability in mouse plasma; assay type: in vitro ADME; conditions: read-out: T1/2 in mouse plasma
[2] = Stability in mouse liver microsome; assay type: in vitro ADME; conditions: liver microsomes, read-out: T1/2 in mouse liver microsome
[3] = Pharmacokinetic study in mice (plasma, brain, CSF); assay type: in vivo, mouse; conditions: for AUC(0-inf) / AUC(0-t) / half-life: male, C57BL/6, mouse; for half-life: read-out: metabolic half-life (converted)
Experimental: PK profiling was outsourced and undertaken by Shanghai ChemPartner Co., Ltd. All animal experiments performed were conducted in compliance with the Institutional Animal Care and Use Committee (IACUC) and the Office of Laboratory Animal Welfare (OLAW) guidelines. Six- to eight-week-old C57BL/6 male mice purchased from Jihui Laboratory Animal Co. LTD were used in the study. […] The animals were restrained manually at the designated time points (0.083, 0.25, 0.5, 1, 2, 4, and 8 h); approximately, 110 μL of blood sample was collected via facial vein into K2EDTA tubes. Three mice per time point were used, resulting in a total of 21 mice for each administration route. The blood sample was put on ice and centrifuged at 2000 g for 5 min to obtain the plasma sample within 15 min. The plasma, brain, CSF samples were stored at approximately −70° C. until analysis. A 30 μL aliquot of plasma was added with 200 μL of internal standard (Glipozode, 40 ng/mL) in MeCN with 5% citri. The mixture was then vortexed for 1 min and then centrifuged for 10 min at 5800 rpm. The supernatant (100 μL) was transferred to a new plate. The solvent (1 μL) was injected to LC-MS/MS. LC-MS/MS instrument used: SCIEX LC-MS/MS-49 (Triple Quad 6500+). Data was analyzed by WinNonLin and Microsoft Excel.

[4] = CSF, intravenous 5 mg/Kg single dose
[5] = brain, gavage (oral) 30 mg/Kg single dose
[6] = brain, intraperitoneal 30 mg/Kg single dose
[7] = brain, intravenous 5 mg/Kg single dose
[8] = ip, brain, intraperitoneal 30 mg/Kg single dose
[9] = gavage (oral) 30 mg/Kg single dose
[10] = intraperitoneal 30 mg/Kg single dose

CNc1nc(Nc2ccc(C(=O)N3CCN(C[C@H]4CC[C@H](CSC(C)(C)[C@H](NC(=O)C5(F)CC5)C(=O)N5C[C@H](O)CC5C(=O)NCc5ccc(-c6scnc6C)cc5)CC4)CC3)cc2OC)ncc1Cl (stereo partly drawn) [XL01126, (2S,4R)-1-((R)-3-((((1R,4R)-4-((4-(4-((5-chloro-4-(methylamino)pyrimidin-2-yl)amino)-3-methoxybenzoyl)piperazin-1-yl)methyl)cyclohexyl)methyl)thio)-2-(1-fluorocyclopropane-1-carboxamido)-3-methylbutanoyl)-4-hydroxy-N-(4-(4-methylthiazol-5-yl)benzyl)pyrrolidine-2-carboxamide]
T1/2 of LRRK2 dephosphorylation in PBMC (LRRK2 pSer935): 1 h | half-life [1]: 1.8 h | half-life [2]: 3.65 min | maximum concentration in cerebrospinal fluid (CSF) [3, 4]: 27.4 ng/mL | time of maximum concentration in CSF [3, 4]: 0.083 h | maximum concentration in brain tissue [3, 5]: 27 ng/mL | time of maximum concentration in brain tissue [3, 5]: 2 h | maximum concentration in brain tissue [3, 6]: 218 ng/mL | time of maximum concentration in brain tissue [3, 6]: 0.5 h | maximum concentration in brain tissue [3, 7]: 155 ng/mL | time of maximum concentration in brain tissue [3, 7]: 0.083 h | reaches CSF (in words) ([3]; intraperitoneal 30 mg/Kg and orally 30 mg/Kg): also reaches CSF | blood brain barrier penetration (in words) ([3]; intravenous 5 mg/Kg, intraperitoneal 30 mg/Kg, oral 30 mg/Kg): capable of penetrating blood brain barrier; also recorded: can penetrant blood brain barrier | AUC(0-inf) [3, 4]: 240 ng·h/mL | AUC(0-t) [3, 4]: 107 ng·h/mL | half-life [3, 4]: 8.59 h | AUC(0-inf) [3, 5]: 402 ng·h/mL | AUC(0-t) [3, 5]: 142 ng·h/mL | half-life [3, 5]: 10.7 h | AUC(0-inf) [3, 7]: 349 ng·h/mL | AUC(0-t) [3, 7]: 258 ng·h/mL | half-life [3, 7]: 3.67 h | AUC(0-inf) [3, 8]: 884 ng·h/mL | AUC(0-t) [3, 8]: 752 ng·h/mL | half-life [3, 8]: 2.79 h | maximum plasma concentration [3, 9]: 3620 ng/mL | time of maximum plasma concentration [3, 9]: 2 h | maximum plasma concentration [3, 10]: 7700 ng/mL | time of maximum plasma concentration [3, 10]: 0.25 h
